Experimental data published in US11708391B2, “Rapaglutins, novel inhibitors of GLUT and use thereof” (The Johns Hopkins University, priority 2016, dated 2023).
Read-outs that look alike come from different tables or passages of the source.

What was measured:
HEK 293T cells [1] = test: Western blot for DNA damage and apoptosis markers in HEK 293T; conditions: 72 h (DNA damage), 24 h (apoptosis)
DLD-1 wild type = test: alamar blue cell viability assay, DLD-1 wild type; format: cell-based
Excerpt: FIGS. 19A-19C. E11 is a specific inhibitor of Glut1. (a)(b) Inhibition of cell proliferation in A549, DLD-1 wild type and Glut1 knock out cells by A18 and E11. (c) Potency of A18 and E11 against the alamar blue assay in A549, DLD-1 wild type and Glut1 knock out cells.
Up to now, at least 14 different isoforms of GLUTs have been identified in human cells. It was then asked whether A18 and E11 are specific inhibitors of GLUT1. To answer this question, colon cancer DLD-1 wild type and GLUT1 gene knock out cell lines were chosen as a cell model (FIG. 4a). […] GLUTs that are most relevant to cancer are Glut1 and Glut3. To obtain additional evidence, Glut1 and Glut3 in HEK 293T cells were overexpressed and an alamar blue cell viability assay was performed again. […] (see FIGS. 4, 19, 20, 26; Table 4).

GLUT1 = target: T1, GLUT1 (Homo sapiens, UniProt P11166); test: pulldown with biotin-rapafucin conjugates from RBC-derived ghosts lysate, anti-GLUT1 Western blot; format: binding; conditions: for binding to GLUT1 in pulldown assay: RBC-derived ghosts cell lysate, Western blot; for competition of the binding of the other rapafucin's probe to GLUT1: pulldown, A18 probe versus E11 and vice versa
T1 construct: endogenous in cells; host or cells: erythrocyte (RBC-derived) ghosts
T1 sequence (P11166 1-492): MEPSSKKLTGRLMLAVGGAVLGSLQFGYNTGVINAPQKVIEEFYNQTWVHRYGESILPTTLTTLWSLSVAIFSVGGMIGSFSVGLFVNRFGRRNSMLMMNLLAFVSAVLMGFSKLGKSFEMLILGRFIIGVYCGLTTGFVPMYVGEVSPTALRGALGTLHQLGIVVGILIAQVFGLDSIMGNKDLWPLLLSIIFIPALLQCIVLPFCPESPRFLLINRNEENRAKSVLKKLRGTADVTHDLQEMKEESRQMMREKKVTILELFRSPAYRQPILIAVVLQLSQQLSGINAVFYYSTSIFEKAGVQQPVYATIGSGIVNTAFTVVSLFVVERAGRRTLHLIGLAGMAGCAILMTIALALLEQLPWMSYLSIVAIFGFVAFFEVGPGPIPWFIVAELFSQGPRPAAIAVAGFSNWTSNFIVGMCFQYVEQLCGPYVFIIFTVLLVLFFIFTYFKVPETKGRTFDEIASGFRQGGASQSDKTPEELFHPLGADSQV
Excerpt: FIGS. 6A-6B. Identification of direct interaction of A18 and E11 to Glut1. Glut1 protein levels of A18 (a) or E11 (b) pull down samples analyzed by western blotting.
After showing that GLUT1 was very likely to be the target of A18 and E11, the direct interaction of A18 and E11 to GLUT1 was then examined. A series of biotin or diazrine-alkyne rapafucin conjugates through different positions were synthesized. […] Importantly, the binding of the biotin-rapafucin probe to GLUT1 is competed by rapafucin. […] (FIGS. 6, 21, 22 and 27)

NF-κB = NF-κB pathway reporter in Jurkat T cells; format: cell-based
Excerpt: (§1) FIGS. 28A-28D. (a) A18 and E11 inhibit NFAT and A18, but not E11, stimulates SRE reporter gene signal. (b) E11 inhibits NFAT, NF-κB and IL2, but not MEF-2 or AP-1 pathways, in Jurkat T cells. (c) Glucose inhibitor stimulates SRE reporter gene signal.

HEK 293T cells [2] = tested on: HEK 293T cells
SRE = SRE reporter gene assay; format: cell-based
Excerpt: as §1

Molecule	DNA damage or apoptosis (phosphor-p53, active caspase 3, 7 and 9) (HEK 293T cells [1])	inhibition of cell proliferation, alamar blue (DLD-1 wild type)	binding to GLUT1 in pulldown assay (GLUT1)	competition of the binding of the other rapafucin's probe to GLUT1 (GLUT1)	NF-κB pathway (NF-κB)	DNA damage or apoptosis (phosphor-p53, active caspase 3, 7 and 9) (HEK 293T cells [2])	SRE reporter gene signal (SRE)
Gly-^MSerBu-Nal-^MAla [E11]	do not induce DNA damage or apoptosis	kept inhibitory activity	can bind directly to GLUT1	cannot be competed	inhibits		
CC[C@@H](C)[C@H]1C(=O)NCC(=O)N(C)CC/C=C/C(=O)OCC(C)(C)C(=O)C(=O)N2CCCC[C@H]2C(=O)O[C@H](CCc2ccc(OC)c(OC)c2)c2cccc(c2)NC(=O)CCC(=O)N(C)[C@@H](CC(C)C)C(=O)N[C@H](Cc2ccccc2)C(=O)N1C [A18]		strongly inhibited	can bind directly to GLUT1	vice versa		do not induce DNA damage or apoptosis	stimulates
